Reference: ChEMBL document CHEMBL1127663, “High-affinity and potent, water-soluble 5-amino-1,4-benzodiazepine CCKB/gastrin receptor antagonists containing a cationic solubilizing group” (J Med Chem, 1994)

Tests used:
[1] = target: T1, Cholecystokinin receptor type A (Rattus norvegicus, UniProt P30551); assay: Binding activity against Cholecystokinin type A receptor from rat pancreas using [125]BH CCK-8s as radioligand.
T1 sequence (P30551 whole entry): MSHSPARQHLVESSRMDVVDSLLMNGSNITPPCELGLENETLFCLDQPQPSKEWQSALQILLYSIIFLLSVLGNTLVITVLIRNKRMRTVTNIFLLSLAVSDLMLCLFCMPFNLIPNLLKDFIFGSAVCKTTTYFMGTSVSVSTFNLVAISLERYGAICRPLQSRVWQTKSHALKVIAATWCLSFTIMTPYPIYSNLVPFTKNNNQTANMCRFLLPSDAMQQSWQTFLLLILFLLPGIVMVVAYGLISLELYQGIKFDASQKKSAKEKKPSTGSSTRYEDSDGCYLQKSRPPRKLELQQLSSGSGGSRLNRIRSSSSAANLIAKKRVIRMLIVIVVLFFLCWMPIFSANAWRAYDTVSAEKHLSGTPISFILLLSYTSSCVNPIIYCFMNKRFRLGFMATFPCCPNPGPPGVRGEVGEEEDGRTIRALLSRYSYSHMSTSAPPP

[2] = Binding activity against Cholecystokinin type B receptor from guinea pig cortex using [125]BH CCK-8s as radioligand.

With `Cc1cccc(NC(=O)NC2N=C(N3CCCCC3)c3ccccc3N(C)C2=O)c1` (centres undefined) the IC50 [1] was 17 nM.
For `Cc1cccc(NC(=O)NC2N=C(N3CC4CCC(CC4)C3)c3ccccc3N(C)C2=O)c1` (centres undefined), the IC50 [1] was 19.9 nM.
Compound `Cc1cccc(NC(=O)N[C@@H]2N=C(C3CCCCC3)c3ccccc3N(C)C2=O)c1` has an IC50 [2] of 0.28 nM.
For `Cc1cccc(NC(=O)N[C@H]2N=C(N3CC4CCC(CC4)C3)c3ccccc3N(C)C2=O)c1`, the IC50 [1] was 6.5 nM.
